Laboratory results published in US9475816B2, “Substituted-1,4-dihydropyrazolo[4,3-b]indoles” (TAKEDA PHARMACEUTICAL COMPANY LIMITED, priority 2012, dated 2016).

Tests used:
human MetAP2 enzyme [1] = biological target: T1, human MetAP2 enzyme (Homo sapiens, UniProt P50579); assay: MetAP2 enzyme assay, MetAP2 enzyme complexed with cobalt ions; settings: MetAP2 Co pIC50, 10 μM CoCl2; -log(IC50), IC50 molar
Method: DNA encoding the full-length sequence of human MetAP2 enzyme is amplified by PCR and cloned into a pFastBac expression vector (Invitrogen). Recombinant baculovirus incorporating the MetAP2 construct is generated by transposition using the Bac-to-Bac system (Invitrogen). The expression of recombinant protein is carried out by infection of Spodoptera frugiperda Sf9 cells (Invitrogen) in 5L Wave Bioreactors (Wave Biotech). Recombinant protein is isolated from cellular extracts by binding to an SP Hitrap Fast Flow or SP Sepharose (Sigma) column, and the protein is eluted using a NaCl gradient. Partially purified extracts of MetAP2 are further purified by an AKTA FPLC over a Superdex-200 column (GE). The purity of MetAP2 protein is determined on denaturing SDS-PAGE gel.
The results for each well are expressed as percent inhibition and calculated using the equation:

human MetAP2 enzyme [2] = biological target: T1, human MetAP2 enzyme; assay: MetAP2 enzyme assay, MetAP2 enzyme complexed with manganese ions; settings: MetAP2 Mn pIC50, 10 μM MnCl2; -log(IC50), IC50 molar

T1 sequence (P50579 whole entry): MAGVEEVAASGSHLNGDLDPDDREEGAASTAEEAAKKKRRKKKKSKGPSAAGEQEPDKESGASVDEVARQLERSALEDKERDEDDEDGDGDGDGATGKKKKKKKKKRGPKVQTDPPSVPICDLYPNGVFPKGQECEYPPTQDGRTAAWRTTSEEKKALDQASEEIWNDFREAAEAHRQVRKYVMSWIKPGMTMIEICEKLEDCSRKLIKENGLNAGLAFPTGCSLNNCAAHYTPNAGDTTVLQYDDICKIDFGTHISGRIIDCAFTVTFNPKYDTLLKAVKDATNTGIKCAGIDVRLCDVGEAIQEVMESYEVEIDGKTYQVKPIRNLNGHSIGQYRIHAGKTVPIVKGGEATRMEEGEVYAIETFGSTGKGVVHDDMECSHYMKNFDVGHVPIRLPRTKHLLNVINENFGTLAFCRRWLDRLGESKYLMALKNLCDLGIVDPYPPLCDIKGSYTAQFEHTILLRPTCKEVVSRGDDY

Row | Compound | IC50 (human MetAP2 enzyme [1]) [nM] | IC50 (human MetAP2 enzyme [2]) [nM]
1 | Cc1nc(N2CC[C@@H](N(C)C)C2)ncc1-n1c2ccc(F)cc2c2[nH]ncc21 [Example 35, (3R)-1-(5-(7-Fluoropyrazolo[4,3-b]indol-4(1H)-yl)-4-methylpyrimidin-2-yl)-N,N-dimethylpyrrolidin-3-amine] | 39.8 | 79.4
2 | Cc1nc(NC[C@@H](C)O)ccc1-n1c2ccc(F)cc2c2[nH]ncc21 [Example 12, (2R)-1-((5-(7-Fluoropyrazolo[4,3-b]indol-4(1H)-yl)-6-methylpyridin-2-yl)amino)propan-2-ol] | 12.6 | 5.01
3 | Cc1nc(C(=O)N2CC(N)C2)ccc1-n1c2ccc(F)cc2c2[nH]ncc21 [Example 117, (3-Aminoazetidin-1-yl)(5-(7-fluoropyrazolo[4,3-b]indol-4(1H)-yl)-6-methylpyridin-2-yl)methanone] | 20 | 7.94
4 | Cc1nc(N2CC[C@H](C(N)=O)C2)ncc1-n1c2ccc(F)cc2c2[nH]ncc21 [Example 21, (3S)-1-(5-(7-Fluoropyrazolo[4,3-b]indol-4(1H)-yl)-4-methylpyrimidin-2-yl)pyrrolidine-3-carboxamide] | 15.8 | 7.94
5 | Cc1nc(N2CCN(C)CC2)ccc1-n1c2ccc(F)cc2c2[nH]ncc21 [Example 7, 7-Fluoro-4-(2-methyl-6-(4-methylpiperazin-1-yl)pyridin-3-yl)-1,4-dihydropyrazolo[4,3-b]indole] | 15.8 | 12.6
6 | Cc1nc(N2CCC(F)CC2)ncc1-n1c2ccc(F)cc2c2[nH]ncc21 [Example 57, 7-Fluoro-4-(2-(4-fluoropiperidin-1-yl)-4-methylpyrimidin-5-yl)-1,4-dihydropyrazolo[4,3-b]indole] | 25.1 | 12.6
7 | Cc1nc(N2CC[C@@H](F)C2)ncc1-n1c2ccc(F)cc2c2[nH]ncc21 [Example 36, 7-Fluoro-4-(2-((R)-3-fluoropyrrolidin-1-yl)-4-methylpyrimidin-5-yl)-1,4-dihydropyrazolo[4,3-b]indole] | 39.8 | 63.1
8 | CC(c1ccccc1)n1c2ccc(F)cc2c2[nH]ncc21 (centres unmarked) [Example 132, 7-Fluoro-4-(1-phenylethyl)-1,4-dihydropyrazolo[4,3-b]indole] | 50.1 | 50.1
9 | Cc1nc(N2CCNCC2)ccc1-n1c2ccc(F)cc2c2[nH]ncc21 [Example 64, 7-Fluoro-4-(2-methyl-6-(piperazin-1-yl)pyridin-3-yl)-1,4-dihydropyrazolo[4,3-b]indole] | 15.8 | 12.6
10 | N#Cc1[nH]ncc1-n1c2ccc(F)cc2c2[nH]ncc21 [Example 22, 4-(7-Fluoropyrazolo[4,3-b]indol-4(1H)-yl)-1H-pyrazole-5-carbonitrile] | 31.6 | 10
11 | Cc1nn(C)c(C)c1-n1c2ccc(F)cc2c2[nH]ncc21 [Example 62, 7-Fluoro-4-(1,3,5-trimethyl-1H-pyrazol-4-yl)-1,4-dihydropyrazolo[4,3-b]indole] | 25.1 | 31.6
12 | Cc1nc(C(=O)NCCO)ccc1-n1c2ccc(F)cc2c2[nH]ncc21 [Example 96, 5-(7-Fluoropyrazolo[4,3-b]indol-4(1H)-yl)-N-(2-hydroxyethyl)-6-methylpicolinamide] | 20 | 12.6
13 | CNC(=O)c1ccc(-n2c3ccc(F)cc3c3[nH]ncc32)c(C)n1 [Example 119, 5-(7-Fluoropyrazolo[4,3-b]indol-4(1H)-yl)-N,6-dimethylpicolinamide] | 20 | 10
14 | Cc1cc(C(=O)N2CCOCC2)ncc1-n1c2ccc(F)cc2c2[nH]ncc21 [Example 106, (5-(7-Fluoropyrazolo[4,3-b]indol-4(1H)-yl)-4-methylpyridin-2-yl)(morpholino)methanone] | 100 | 100
15 | CCN1CCn2ncc(-n3c4ccc(F)cc4c4[nH]ncc43)c2C1 [Example 112, 4-(5-Ethyl-4,5,6,7-tetrahydropyrazolo[1,5-a]pyrazin-3-yl)-7-fluoro-1,4-dihydropyrazolo[4,3-b]indole] | 12.6 | 20
16 | Fc1ccc2c(c1)c1[nH]ncc1n2-c1cnn2c1CNCC2 [Example 25, 7-Fluoro-4-(4,5,6,7-tetrahydropyrazolo[1,5-a]pyrazin-3-yl)-1,4-dihydropyrazolo[4,3-b]indole] | 25.1 | 12.6
17 | Cc1nc(N2CC(F)(F)C2)ncc1-n1c2ccc(F)cc2c2[nH]ncc21 [Example 43, 4-(2-(3,3-Difluoroazetidin-1-yl)-4-methylpyrimidin-5-yl)-7-fluoro-1,4-dihydropyrazolo[4,3-b]indole] | 12.6 | 12.6
18 | Cc1cc(C(=O)NCCO)ncc1-n1c2ccc(F)cc2c2[nH]ncc21 [Example 95, 5-(7-Fluoropyrazolo[4,3-b]indol-4(1H)-yl)-N-(2-hydroxyethyl)-4-methylpicolinamide] | 31.6 | 20
19 | Cc1cccc(-n2c3ccc(F)cc3c3[nH]ncc32)n1 [Example 11, 7-Fluoro-4-(6-methylpyridin-2-yl)-1,4-dihydropyrazolo[4,3-b]indole] | 100 | 6.31
20 | Cc1nc(N2CC(C(N)=O)C2)ncc1-n1c2ccc(F)cc2c2[nH]ncc21 [Example 89, 1-(5-(7-Fluoropyrazolo[4,3-b]indol-4(1H)-yl)-4-methylpyrimidin-2-yl)azetidine-3-carboxamide] | 20 | 10
21 | O=C(NCc1ccccc1)n1c2ccc(F)cc2c2[nH]ncc21 [Example 98, N-Benzyl-7-fluoropyrazolo[4,3-b]indole-4(1H)-carboxamide] | 501 | 158
22 | CN1CCN(C(=O)c2ccc(Cn3c4ccc(F)cc4c4[nH]ncc43)cc2)CC1 [Example 53, (4-((7-Fluoropyrazolo[4,3-b]indol-4(1H)-yl)methyl)phenyl)(4-methylpiperazin-1-yl)methanone] | 50.1 | 79.4
23 | O=C(C1CC1)n1c2ccc(F)cc2c2[nH]ncc21 [Example 99, Cyclopropyl(7-fluoropyrazolo[4,3-b]indol-4(1H)-yl)methanone] | 794 | 316
24 | Cc1nc2[nH]cnc2cc1-n1c2cc(Cl)ccc2c2[nH]ncc21 [Example 128, 6-Chloro-4-(5-methyl-3H-imidazo[4,5-b]pyridin-6-yl)-1,4-dihydropyrazolo[4,3-b]indole] | 79.4 | 63.1
25 | Cc1nc(N)ncc1-n1c2ccc(F)cc2c2[nH]ncc21 [Example 85, 5-(7-Fluoropyrazolo[4,3-b]indol-4(1H)-yl)-4-methylpyrimidin-2-amine] | 15.8 | 12.6
26 | Cc1nc(C(=O)N(C)CC#N)ccc1-n1c2ccc(F)cc2c2[nH]ncc21 [Example 121, N-(Cyanomethyl)-5-(7-fluoropyrazolo[4,3-b]indol-4(1H)-yl)-N,6-dimethylpicolinamide] | 20 | 15.8

Compounds with a lower IC50 (human MetAP2 enzyme [1]), results first:

Row | IC50 (human MetAP2 enzyme [1]) [nM] | IC50 (human MetAP2 enzyme [2]) [nM] | Compound
27 | 7.94 | 12.6 | Cc1nc(N2CC(CO)C2)ncc1-n1c2ccc(F)cc2c2[nH]ncc21 [Example 47, (1-(5-(7-Fluoropyrazolo[4,3-b]indol-4(1H)-yl)-4-methylpyrimidin-2-yl)azetidin-3-yl)methanol]
28 | 7.94 | 6.31 | Cc1c(-n2c3ccc(F)cc3c3[nH]ncc32)ccc2c1cnn2C [Example 17, 4-(1,4-Dimethyl-1H-indazol-5-yl)-7-fluoro-1,4-dihydropyrazolo[4,3-b]indole]
29 | 7.94 | 10 | COCCn1cnc2cc(-n3c4ccc(F)cc4c4[nH]ncc43)c(C)nc21 [Example 31, 7-Fluoro-4-(3-(2-methoxyethyl)-5-methyl-3H-imidazo[4,5-b]pyridin-6-yl)-1,4-dihydropyrazolo[4,3-b]indole]
30 | 7.94 | 15.8 | Cc1nc(N2CC(O)C2)ncc1-n1c2ccc(F)cc2c2[nH]ncc21 [Example 127, 1-(5-(7-Fluoropyrazolo[4,3-b]indol-4(1H)-yl)-4-methylpyrimidin-2-yl)azetidin-3-ol]
31 | 7.94 | 10 | Cc1nc(N2CCO[C@@H](CO)C2)ncc1-n1c2ccc(F)cc2c2[nH]ncc21 [Example 77, ((2R)-4-(5-(7-Fluoropyrazolo[4,3-b]indol-4(1H)-yl)-4-methylpyrimidin-2-yl)morpholin-2-yl)methanol]
32 | 7.94 | 10 | Cc1nc(N2CCNC(=O)C2)ncc1-n1c2ccc(F)cc2c2[nH]ncc21 [Example 44, 4-(5-(7-Fluoropyrazolo[4,3-b]indol-4(1H)-yl)-4-methylpyrimidin-2-yl)piperazin-2-one]
33 | 10 | 12.6 | Cc1nc(C(=O)NCC(N)=O)ccc1-n1c2ccc(F)cc2c2[nH]ncc21 [Example 124, N-(2-Amino-2-oxoethyl)-5-(7-fluoropyrazolo[4,3-b]indol-4(1H)-yl)-6-methylpicolinamide]
34 | 10 | 12.6 | Cc1cc(C(=O)NC2(CO)CC2)ncc1-n1c2ccc(F)cc2c2[nH]ncc21 [Example 104, 5-(7-Fluoropyrazolo[4,3-b]indol-4(1H)-yl)-N-(1-(hydroxymethyl)cyclopropyl)-4-methylpicolinamide]
35 | 10 | 12.6 | Cc1nc2[nH]cnc2cc1-n1c2cc(F)c(F)cc2c2[nH]ncc21 [Example 130, 6,7-Difluoro-4-(5-methyl-3H-imidazo[4,5-b]pyridin-6-yl)-1,4-dihydropyrazolo[4,3-b]indole]
36 | 10 | 10 | Cc1nc(C(=O)NC2CC2)ccc1-n1c2ccc(F)cc2c2[nH]ncc21 [Example 101, N-Cyclopropyl-5-(7-fluoropyrazolo[4,3-b]indol-4(1H)-yl)-6-methylpicolinamide]
37 | 10 | 3.16 | Cc1c(-n2c3ccc(F)cc3c3[nH]ncc32)cnc(N)c1C [Example 68, 5-(7-Fluoropyrazolo[4,3-b]indol-4(1H)-yl)-3,4-dimethylpyridin-2-amine]
